The NIST ThermoML archive (doi:10.1021/acs.jced.6b00360)
± gives the expanded uncertainty stated by the source.

Conditions: Liquid, Vibrating tube method

mass density (313.15 K, 101.33 kPa) [kg/m3] | mass density (323.15 K, 101.33 kPa) [kg/m3] | mass density (333.15 K, 101.33 kPa) [kg/m3] | mass density (343.15 K, 101.33 kPa) [kg/m3] | mass density (352.15 K, 101.33 kPa) [kg/m3] | mass density (280.15 K, 100 kPa) [kg/m3] | mass density (280.15 K, 40000 kPa) [kg/m3] | mass density (293.15 K, 100 kPa) [kg/m3] | mass density (293.15 K, 40000 kPa) [kg/m3] | mass density (303.15 K, 100 kPa) [kg/m3] | mass density (303.15 K, 40000 kPa) [kg/m3] | mass density (313.15 K, 100 kPa) [kg/m3] | mass density (313.15 K, 40000 kPa) [kg/m3] | mass density (323.15 K, 100 kPa) [kg/m3] | mass density (323.15 K, 40000 kPa) [kg/m3] | mass density (333.15 K, 100 kPa) [kg/m3] | mass density (333.15 K, 40000 kPa) [kg/m3] | mass density (343.15 K, 100 kPa) [kg/m3] | mass density (352.15 K, 100 kPa) [kg/m3] | Structure (SMILES)
959.4 ± 3.9 | 951 ± 3.9 | 943.1 ± 3.9 | 934.4 ± 3.8 | 927 ± 3.8 | – | – | – | – | – | – | – | – | – | – | – | – | – | – | COC(=O)CCCCCCCCCCC(=O)OC [dimethyl dodecanoate]
– | – | – | – | – | 897.46 ± 5.7 | 914.37 ± 5.8 | 886.83 ± 5.6 | 906.75 ± 5.8 | 878.63 ± 5.5 | 895.63 ± 5.7 | 870.71 ± 5.5 | 888.48 ± 5.7 | 862.33 ± 5.4 | 881.75 ± 5.6 | 854.49 ± 5.3 | 874.61 ± 5.6 | 845.8 ± 5.3 | 838.42 ± 5.2 | C=CCCCCCCCCC(=O)OC [methyl 10-undecenoate]
